The source of these data is patent US20250376659A1, “DERIVATION OF SOMATOTROPHS FROM STEM CELLS AND USES THEREOF” (MEMORIAL SLOAN-KETTERING CANCER CENTER, priority 2017, published 2025).

Entries after “also recorded” stand apart in the source; their conditions may differ. No end group written: not given here.

Assay [1] relates to Human ES or iPS cells. Nature of the assay: Marker gene expression during step-wise differentiation of human pluripotent stem cells to somatotrophs. It counts as cell-based. The conditions noted are these: for PIT1 expression: FIG. 4, FIG. 5, FIG. 16; for PIT1 expression / GH1 expression: compared with the control group; for GH1 expression: FIG. 6, 7A, 7B, 16. The protocol: Human ES or iPS cells were expanded in E8 media on matrigel.
On day 0, cells were changed to E6 media where BMP4 (5 ng/ml) and SB43152 (10 μM) were added, with daily medium and factors change.
On day 3, BMP4 was removed and the following factors added: FGF8 (100 ng/ml); FGF10 (50 ng/ml); FGF18 (50 ng/ml); Sonic hedgehog (SHH) (100 ng/ml) or SAG (Smoothened Agonist) (100 nM); LDN193189 (250 nM). Media and factors were changed every other day.
Media and factors are changed every other day.
(§1) On day 15, the following factors were used: Retinoic acid (1 μM); Thyroid hormone T3 (10 nM); Dexamethasone (1 μM); cyclic AMP (100 μg/ml); DPN (0.1 nM); Growth Hormone Releasing Hormone (GHRH) (1 μM). Media and factors were changed every other day.
On day 29, the cells entered the maturation phase and could be maintained in the same factors for a variable period ranging from 1-4 weeks. […] They could be subjected to FACS sorting for GHRH in order to obtain a pure cell population of somatotrophs. Cells remained on matrigel for the duration of the protocol.
In order to derive GH cells, the strategy was to first differentiate human pluripotent stem cells to pre-placodal ectoderm and anterior pituitary progenitors. The cells were further differentiated to PROP1 lineage, and then to PIT1 lineage. The cells were then terminally differentiated to GH cells. The step-wise protocol to differentiate pluripotent stem cells into growth hormone secreting cells involved promoting Prop1 expression in anterior pituitary progenitors, activating POU1F1 (PIT1), directing cell differentiation to growth hormone expressing cells. The growth hormone expressing cells were also further matured via prolonged incubation. The key markers to monitor the process of differentiation comprised Prop1, POU1F1 (PIT1), GH and GHRHR.
For example, the first step was to induce non-neural ectoderm by BMP4 and inhibitor of TGF-β/Activin/NODAL pathway (e.g., SB431542). Then the cells were subjected to inhibitor of TGF-β/Activin/NODAL pathway (e.g., SB431542), FGF8/10/18, SHH agonist (e.g., SHH), and a SMAD inhibitor (e.g., LDN 193189) to induce anterior pituitary progenitors, which were characterized by PITX1/2, LHX3/4 and PROP1 expression.
For selective differentiation to somatotrophs, retinoic acid were used to suppress POMC expressed by corticotrophs and to promote GH1 expression which is expressed by somatotrophs. In addition, the corticosteroid (e.g., Dexamethasone) and thyroid hormone (e.g., T3) were added to the medium to inhibit PRL (expressed by lactotroph) and TSH (expressed by thyrotroph), while promoting GH1 expression.

Assay [2] deals with rodent GSK3β homologs. The conditions noted are these: cited from earlier work.
Assay [3] has as its system somatotrophs. Nature of the assay: GHRH stimulation of stem-cell-derived GH cell population. The format is cell-based, human. To be noted: cell population after growth hormone induction, FIG. 8 lower right panel. The protocol: as §1
On day 29, the cells entered the maturation phase and could be maintained in the same factors for a variable period ranging from 1-4 weeks. Cells at this stage expressed GHRH receptors (GHRHR). They could be subjected to FACS sorting for GHRH in order to obtain a pure cell population of somatotrophs. Cells remained on matrigel for the duration of the protocol.
After this step, the majority population in culture were somatotrophs which expressed the somatotroph marker GH1 and secreted growth hormone in the supernatant. The phenotype of the population is shown FIG. 8. The cell population expressed high amount of GH and GHRHR, and low amount of TSH, PRL and LH. GH expression was further increased upon GHRH stimulation (FIG. 8, lower right panel).

As to `Cc1c[nH]c(-c2cnc(NCCNc3ccc(C#N)cn3)nc2-c2ccc(Cl)cc2Cl)n1` [CHIR99021, 6-(2-(4-(2,4-dichlorophenyl)-5-(4-methyl-1H-imidazol-2-yl)pyrimidin-2-ylamino)ethylamino) nicotinonitrile, reference compound], the PIT1 expression result in assay [1] was “induce”. Besides, in assay [2], the “IC50 values against rodent GSK3β homologs” value was “nanomolar”.

`N#CC(Cc1ccc(O)cc1)c1ccc(O)cc1` (stereo not drawn) [DPN, 2,3-bis(4-hydroxyphenyl) propionitrile, reference compound]: the GH1 expression entry in assay [1] is recorded as “further promoted”. As to `N[C@@H](Cc1cc(I)c(Oc2ccc(O)c(I)c2)c(I)c1)C(=O)O` [T3, reference compound], the TSH-β expression result in assay [1] (FIG. 7C, p-value<0.01 compared with the control groups) is “significantly reduced”. On to `C[C@]12C[C@H](O)[C@H]3[C@@H](CCC4=CC(=O)CC[C@@]43C)[C@@H]1CC[C@@H]2C(=O)CO` [corticosterone, reference compound], for which, in assay [1] (FIG. 7D, p-value<0.01 compared with the control groups), the PRL expression result is listed as “significantly reduced”. On to “GHRH: Growth Hormone Releasing Hormone, GHRH signaling pathway agonist (YADAIFTNSYRKVLGQLSARKLLQDIMSRQQGESNQERGARARL; ends and bridges not checked; UniProt P01286 32-75, looked up)”, for which the “GH expression upon GHRH stimulation” value in assay [3] is on record as “increased”. The GH1 expression result in assay [1] is listed as “significantly increased; also recorded: further promoted”. In the case of “Ghrelin: Ghrelin signaling pathway agonist (GSSFLSPEHQRVQQRKESKKPPAKLQPR; ends and bridges not checked; UniProt Q9UBU3 24-51, looked up)”, in assay [1], the GH1 expression entry is reported as “promoting”. Turning to IL 6: interleukin, in assay [1], the PIT1 expression entry was “increased” and the GH1 expression entry was “increased”.

B1: FGF8: activator of FGF signaling, dorsalizing agent (protein, UniProt P55075 23-233, looked up)
Fibroblast growth factor 8: QEGPGRGPALGRELASLFRAGREPQGVSQQHVREQSLVTDQLSRRLIRTYQLYSRTSGKHVQVLANKRINAMAEDGDPFAKLIVETDTFGSRVRVRGAETGLYICMNKKGKLIAKSNGKGKDCVFTEIVLENNYTALQNAKYEGWYMAFTRKGRPRKGSKTRQHQREVHFMKRLPRGHHTTEQSLRFEFLNYPPFTRSLRGSQRTWAPEPR
Regarding B1, the PROP1 expression entry in assay [1] (FIG. 3, FIG. 5) was “maintained”. Also, the PIT1 expression result in assay [1] is “downregulated”. For the same molecule, the POMC expression result in assay [1] (FIG. 5) was “upregulated”.

B2: IL10: interleukin (protein, UniProt P22301 19-178, looked up)
Interleukin-10: SPGQGTQSENSCTHFPGNLPNMLRDLRDAFSRVKTFFQMKDQLDNLLLKESLLEDFKGYLGCQALSEMIQFYLEEVMPQAENQDPDIKAHVNSLGENLKTLRLRLRRCHRFLPCENKSKAVEQVKNAFNKLQEKGIYKAMSEFDIFINYIEAYMTMKIRN
In the case of B2, in assay [1], the PIT1 expression entry is “increased” and the GH1 expression result is recorded as “increased”.
